{"source": "patent US4336257A", "about": "“Novel 2-pyridylbenzimidazole compounds” (Merck & Co., Inc., priority 1980, dated 1982)", "key": {"[1]": {"target": "T1, xanthine oxidase (Bos taurus, UniProt P80457)", "T1 sequence (P80457 whole entry)": "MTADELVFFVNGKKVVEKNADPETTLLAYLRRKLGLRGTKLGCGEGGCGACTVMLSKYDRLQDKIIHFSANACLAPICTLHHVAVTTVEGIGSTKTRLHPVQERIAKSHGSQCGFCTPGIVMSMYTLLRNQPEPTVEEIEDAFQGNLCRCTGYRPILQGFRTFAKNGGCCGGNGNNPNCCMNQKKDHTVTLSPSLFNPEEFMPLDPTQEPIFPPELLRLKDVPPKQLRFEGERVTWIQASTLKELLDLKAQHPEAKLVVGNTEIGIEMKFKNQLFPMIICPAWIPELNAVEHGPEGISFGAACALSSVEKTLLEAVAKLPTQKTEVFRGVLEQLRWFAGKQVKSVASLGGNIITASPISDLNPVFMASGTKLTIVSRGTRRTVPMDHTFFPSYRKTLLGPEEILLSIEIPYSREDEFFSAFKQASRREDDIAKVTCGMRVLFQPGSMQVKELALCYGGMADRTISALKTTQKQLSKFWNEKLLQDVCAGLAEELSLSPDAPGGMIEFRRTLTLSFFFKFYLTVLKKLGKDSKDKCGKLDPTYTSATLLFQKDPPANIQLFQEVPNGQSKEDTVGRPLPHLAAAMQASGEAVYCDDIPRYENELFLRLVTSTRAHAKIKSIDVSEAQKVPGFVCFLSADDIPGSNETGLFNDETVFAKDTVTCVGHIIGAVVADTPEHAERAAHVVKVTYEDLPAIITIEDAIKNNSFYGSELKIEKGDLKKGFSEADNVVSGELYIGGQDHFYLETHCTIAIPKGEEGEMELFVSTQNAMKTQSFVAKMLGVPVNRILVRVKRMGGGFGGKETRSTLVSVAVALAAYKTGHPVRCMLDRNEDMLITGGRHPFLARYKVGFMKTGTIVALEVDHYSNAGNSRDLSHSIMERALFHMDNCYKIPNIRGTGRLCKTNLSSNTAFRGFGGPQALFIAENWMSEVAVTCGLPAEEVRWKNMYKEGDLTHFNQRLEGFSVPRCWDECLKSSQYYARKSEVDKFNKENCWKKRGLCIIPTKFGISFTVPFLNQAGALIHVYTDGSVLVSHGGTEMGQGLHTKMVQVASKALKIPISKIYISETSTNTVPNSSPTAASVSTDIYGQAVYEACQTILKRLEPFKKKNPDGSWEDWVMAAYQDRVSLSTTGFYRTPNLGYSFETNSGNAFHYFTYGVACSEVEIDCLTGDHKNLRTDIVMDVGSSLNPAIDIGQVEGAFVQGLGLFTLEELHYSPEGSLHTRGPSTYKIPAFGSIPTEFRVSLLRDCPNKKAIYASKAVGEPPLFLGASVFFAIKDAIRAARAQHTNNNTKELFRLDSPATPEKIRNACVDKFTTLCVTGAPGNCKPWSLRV", "assay": "in vitro xanthine oxidase (X.O.) inhibition", "assay_type": "biochemical", "description": "(§1) The xanthine oxidase activity of representative compounds was determined using an in vitro test--the antihypertensive activity was determined by administration of said compounds to a spontaneously hypertensive (SH) or renal hypertensive (RH) rat. The X.O. inhibition is expressed as % inhibition of the enzyme at a present compound concentration of 2×10^-5 M. | .circle.* using in vitro test as described in J. Med. Chem. 20,"}, "[2]": {"test_system": "spontaneously hypertensive (SH) rat", "assay": "antihypertensive activity in spontaneously hypertensive (SH) rat", "assay_type": "in vivo", "conditions": "SH rat (footnote 1)", "description": "as §1, with “M.” for “M. | .circle.* using in vitro test as described in J. Med. Chem. 20,”"}, "[3]": {"test_system": "spontaneously hypertensive (SH) or renal hypertensive (RH) rat", "assay": "antihypertensive activity in spontaneously hypertensive (SH) or renal hypertensive (RH) rat, model not specified", "assay_type": "in vivo", "conditions": "model not marked", "description": "as §1, with “M.” for “M. | .circle.* using in vitro test as described in J. Med. Chem. 20,”"}, "[4]": {"test_system": "renal hypertensive (RH) rat", "assay": "antihypertensive activity in renal hypertensive (RH) rat", "assay_type": "in vivo", "conditions": "RH rat (footnote 2)", "description": "as §1, with “M.” for “M. | .circle.* using in vitro test as described in J. Med. Chem. 20,”"}, "[5]": {"target": "T1, xanthine oxidase", "assay": "in vitro xanthine oxidase (X.O.) inhibition", "assay_type": "biochemical", "conditions": "Table 2; amount 1.5 × 10^-5 m; read-out: X.O.I."}, "[6]": {"conditions": "Table 1, compound concentration 2×10^-5 M, read-out: % X.O. Inhibition"}, "[7]": {"conditions": "Table 2, amount 2 × 10^-5 M, read-out: X.O.I."}}, "note": "Where two headings read alike, the source gives them in different places."}
{"smiles": "Cc1cnc(-c2ccncc2)[nH]1", "values": [{"measurement": "inhibition at 20 µM", "setting": "[1]; [6]", "result": 4, "unit": "%"}, {"measurement": "A.H. Activity", "setting": "[2]", "result": "yes"}]}
{"smiles": "Cc1cnc(-c2cccnc2)[nH]1", "values": [{"measurement": "inhibition at 20 µM", "setting": "[1]; [6]", "result": 0, "unit": "%"}, {"measurement": "A.H. Activity", "setting": "[2]", "result": "yes"}]}
{"smiles": "c1cnc2[nH]c(-c3ccncc3)nc2c1", "values": [{"measurement": "inhibition at 20 µM", "setting": "[1]; [6]", "result": 8, "unit": "%"}, {"measurement": "A.H. Activity", "setting": "[2]", "result": "yes"}]}
{"smiles": "c1cncc(-c2nc3cccnc3[nH]2)c1", "values": [{"measurement": "inhibition at 20 µM", "setting": "[1]; [6]", "result": 5, "unit": "%"}, {"measurement": "A.H. Activity", "setting": "[2]", "result": "yes"}]}
{"smiles": "c1cc(-c2nc3cnccc3[nH]2)ccn1", "values": [{"measurement": "inhibition at 20 µM", "setting": "[1]; [6]", "result": 62, "unit": "%"}, {"measurement": "A.H. Activity", "setting": "[2]", "result": "yes"}]}
{"smiles": "c1cncc(-c2nc3cnccc3[nH]2)c1", "values": [{"measurement": "inhibition at 20 µM", "setting": "[1]; [6]", "result": 23, "unit": "%"}, {"measurement": "A.H. Activity", "setting": "[3]", "result": "no"}]}
{"smiles": "Clc1ccc2[nH]c(-c3cccnc3)nc2c1", "values": [{"measurement": "inhibition at 20 µM", "setting": "[1]; [7]", "result": 0, "unit": "%"}]}
{"smiles": "Clc1ccc2[nH]c(-c3ccncc3)nc2c1", "note": "[drawing 6]", "values": [{"measurement": "A.H. Activity", "setting": "[4]", "result": "yes"}, {"measurement": "inhibition at 20 µM", "setting": "[1]; [6]", "result": 11, "unit": "%"}]}
{"smiles": "Clc1cc2nc(-c3ccncc3)[nH]c2cc1Cl", "note": "[drawing 7]", "values": [{"measurement": "inhibition at 20 µM", "setting": "[1]; [6]", "result": 56, "unit": "%"}, {"measurement": "A.H. Activity", "setting": "[3]", "result": "no"}]}
{"smiles": "Clc1ccc2[nH]c(-c3ccncc3)nc2c1", "note": "[drawing 13]", "values": [{"measurement": "inhibition at 20 µM", "setting": "[1]; [7]", "result": 11, "unit": "%"}]}
{"smiles": "Clc1cc2nc(-c3ccncc3)[nH]c2cc1Cl", "note": "[drawing 14]", "values": [{"measurement": "inhibition at 15 µM", "setting": "[5]", "result": 50, "unit": "%"}]}
